Molecular target: T1, TLR9 (Homo sapiens, UniProt Q9NR96)
T1 construct: Fresh blood was collected from normal human donors; endogenous in cells; host or cells: human PBMCs from fresh donor blood
T1 sequence (Q9NR96 26-1032): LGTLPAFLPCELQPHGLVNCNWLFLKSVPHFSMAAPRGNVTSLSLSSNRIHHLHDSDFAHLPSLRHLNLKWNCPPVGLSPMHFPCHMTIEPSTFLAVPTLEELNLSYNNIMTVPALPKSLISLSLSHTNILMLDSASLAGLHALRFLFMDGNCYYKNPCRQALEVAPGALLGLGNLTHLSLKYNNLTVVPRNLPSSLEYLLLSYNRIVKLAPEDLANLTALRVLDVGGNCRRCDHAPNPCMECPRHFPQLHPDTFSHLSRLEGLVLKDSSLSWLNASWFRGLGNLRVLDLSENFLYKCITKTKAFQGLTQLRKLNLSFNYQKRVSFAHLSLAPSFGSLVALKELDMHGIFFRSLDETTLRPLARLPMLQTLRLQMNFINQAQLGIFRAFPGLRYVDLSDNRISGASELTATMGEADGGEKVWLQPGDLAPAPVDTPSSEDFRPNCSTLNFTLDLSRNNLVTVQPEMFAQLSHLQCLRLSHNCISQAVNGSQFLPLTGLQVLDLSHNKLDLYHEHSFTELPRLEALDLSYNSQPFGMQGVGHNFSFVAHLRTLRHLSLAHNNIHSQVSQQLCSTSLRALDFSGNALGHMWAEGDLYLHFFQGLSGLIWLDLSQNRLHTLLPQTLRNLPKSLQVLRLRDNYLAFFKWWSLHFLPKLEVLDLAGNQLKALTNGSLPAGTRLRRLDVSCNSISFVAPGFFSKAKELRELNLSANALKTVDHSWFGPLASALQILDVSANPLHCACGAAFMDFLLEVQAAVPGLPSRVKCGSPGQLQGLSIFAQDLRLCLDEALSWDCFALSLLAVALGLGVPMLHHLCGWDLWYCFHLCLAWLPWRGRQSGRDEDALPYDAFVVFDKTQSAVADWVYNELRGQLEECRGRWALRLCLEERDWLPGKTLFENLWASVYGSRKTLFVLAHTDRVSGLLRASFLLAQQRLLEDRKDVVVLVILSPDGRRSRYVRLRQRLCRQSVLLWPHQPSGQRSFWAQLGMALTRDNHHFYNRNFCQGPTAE
Assay: huPBMC TLR9 Antagonist IFNα Assay
Assay type: cell-based
Settings: human PBMCs stimulated with ODN2216 0.3 μM, 14-16 hrs; IFNα2b AlphaLISA read-out
Method: Compounds were generally serially diluted (1/3) in DMSO and plated on sterile 384 well tissue culture plates and stored until ready for use. Each ten-point dilution was typically plated in triplicate in parallel rows.
Fresh blood was collected from normal human donors underwritten informed consent in heparinized syringes on the morning of the assay. The blood was diluted in RPMI-1640 medium and the white blood cells were separated from red blood cells by centrifugation (800 g 15′ 0 acceleration, 0 brake) on a Ficoll cushion. Peripheral blood mononuclear cells (PBMCs) were separated from platelets by a series of low-speed centrifugations (1000RPM 10′) in PBS+5% HI—FBS and 1 mM EDTA. Purified PBMCs were re-suspended in assay medium (RPMI-1640 w Glutamax (Invitrogen) supplemented with 5% HI—FBS, 10 mM HEPES, 50 uM β-mercaptoethanol, and 100 mG/L penicillin/streptomycin cocktail). Viable PBMCs were counted on a hemacytometer and kept on ice until ready for plating.
A 4× concentration (4 ug/ml or 40 ug/ml for TLR8 or TLR7 assays, respectively) of the TLR7/8 agonist ssRNA40 (IDT) was complexed with 10% DOTAP (Roche) in assay medium for 30 min prior to addition to the PBMC suspension (5 million cells/ml). After addition, the final concentration of ssRNA40 in the TLR7/8 stimulated PBMC suspension was 1 μg/ml for TLR8 assay, and 10 μg/mL for the TLR7 assay. The final DOTAP concentration was 2.5%. Diluted PBMCs (5 million cells/ml) were treated with 4×TLR9 agonist ODN2216 (Invivogen). Final concentration of ODN2216 in TLR9 stimulated PBMC suspension was 0.3 μM.
Agonist stimulated PBMCs were plated on the compound treated 384 well plates at 150,000 cells/well. Un-stimulated PBMCs were plated as controls on each plate. Plating volume was 40 μL per well. DMSO concentration in each well was 0.25%.
A separate plate, without compounds, with titrations of ssRNA40 and ODN2216 was included in every assay to measure agonist response of each donor's PBMC prep. Assay plates were placed in a tissue culture incubator (37° C., 5% CO2) for 14-16 hrs. After this incubation, the plates were centrifuged and stored at −20° C. until they were assayed.
IL-6 TR-FRET Assay for TLR8 activity: • 1) Cisbio Human IL-6 kit, 20,000 tests (62TNFPEC), and GNF High-Base TC 384 well plates (cat #789163G) were used; • 2) the Anti-TIL-6 Cryptate conjugate and the Anti-IL-6 XL665 conjugate were diluted 1:20 in Reconstitution Buffer; • 3) a 1:1 mixture of 3 μl/well Anti-IL-6 Cryptate conjugate and 3 μl/well Anti-IL-6 XL665 conjugate was prepared; • 4) 6 μl/well HTRF dilution mastermix was added to 6 μl of transferred supernatant samples in proxiplates; • 5) The plates were incubated for 3 hrs at rt in the dark; and • 6) the levels of IL-6 production was measured using an Envision plate reader (665 nm (emmission)/590 nm (excitation)) with HTRF settings and ratiometric read-out: (XL665 emission/Eu Cryptate emission)×10,000. IFNα2b AlphaLISA Assay for TLR7 or TLR9 activity After thawing the assay plates, 6 μL of supernatant samples were transferred to a low-volume AlphaPlate 384SW (Perkin-Elmer). The concentration of IFNα in supernatants was measured using the IFNα2b AlphaLISA Assay (Perkin-Elmer: AL297F). 3 μL of IFNα acceptor beads/biotinylated antibody solution was added first, using laboratory automation. After an hour incubation, […] of streptavidin […] bead solution was added. The plates containing this mixture were incubated in the dark for an hour and read on an appropriate plate reader at reading parameters set by the manufacturer. (Envision, EnSpire: Perkin-Elmer).

| IC50 [µM] | Structure (SMILES) |
| --- | --- |
| > 9.38 | CCNCC(=O)NC12CCC(Cn3nc(C)c4c3CCN(c3nc(C)nc5[nH]ncc35)C4)(CC1)CC2 [compound 20, 2-(ethylamino)-N-(4-((3-methyl-5-(6-methyl-1H-pyrazolo[3,4-d]pyrimidin-4-yl)-4,5,6,7-tetrahydro-1H-pyrazolo[4,3-c]pyridin-1-yl)methyl)bicyclo[2.2.2]octan-1-yl)acetamide] |
| > 10 | Cc1nc(N2CCc3c(c(C)nn3CC34CCC(N5CCOCC5)(CC3)CC4)C2)c2cn[nH]c2n1 [compound 21, 4-(4-((3-methyl-5-(6-methyl-1H-pyrazolo[3,4-d]pyrimidin-4-yl)-4,5,6,7-tetrahydro-1H-pyrazolo[4,3-c]pyridin-1-yl)methyl)bicyclo[2.2.2]octan-1-yl)morpholine] |
| > 10 | CCNCC(=O)NC12CCC(Cn3nc(C)c4c3CCN(c3nc(C)nc5c(C)nn(C)c35)C4)(CC1)CC2 [compound 22, 2-(ethylamino)-N-(4-((3-methyl-5-(1,3,5-trimethyl-1H-pyrazolo[4,3-c]pyrimidin-7-yl)-4,5,6,7-tetrahydro-1H-pyrazolo[4,3-c]pyridin-1-yl)methyl)bicyclo[2.2.2]octan-1-yl)acetamide] |
| > 10 | Cc1nc(N2CCc3c(c(C)nn3CC34CCC(NCC5COC5)(CC3)CC4)C2)c2c(n1)c(C)nn2C [compound 23, 4-((3-methyl-5-(1,3,5-trimethyl-1H-pyrazolo[4,3-c]pyrimidin-7-yl)-4,5,6,7-tetrahydro-1H-pyrazolo[4,3-c]pyridin-1-yl)methyl)-N-(oxetan-3-ylmethyl)bicyclo[2.2.2]octan-1-amine] |
| > 7.38 | Cc1nc(N2CCc3c(c(C)nn3CC34CCC(NC(=O)CCN(C)C)(CC3)CC4)C2)c2c(n1)c(C)nn2C [compound 24, 3-(dimethyalmino)-N-(4-((3-methyl-5-(1,3,5-trimethyl-1H-pyrazolo[4,3-d]pyrimidin-7-yl)-4,5,6,7-tetrahydro-1H-pyrazolo[4,3-c]pyridin-1-yl)methyl)bicyclo[2.2.2]octan-1-yl)propanamide] |
| > 8.08 | Cc1nc(N2CCc3c(c(C)nn3CC34CCC(N5CCOCC5)(CC3)CC4)C2)c2c(n1)c(C)nn2C [compound 25, 4-(4-((3-methyl-5-(1,3,5-trimethyl-1H-pyrazolo[4,3-d]pyrimidin-7-yl)-4,5,6,7-tetrahydro-1H-pyrazolo[4,3-c]pyridin-1-yl)methyl)bicyclo[2.2.2]octan-1-yl)morpholine] |
| > 10 | Cc1nc(N2CCc3c(c(C)nn3CC34CCC(NC5CCC5)(CC3)CC4)C2)c2c(n1)c(C)nn2C [compound 27, N-cyclobutyl-4-((3-methyl-5-(1,3,5-trimethyl-1H-pyrazolo[4,3-d]pyrimidin-7-yl)-4,5,6,7-tetrahydro-1H-pyrazolo[4,3-c]pyridin-1-yl)methyl)bicyclo[2.2.2]octan-1-amine] |

Continued, compound first:

| Structure (SMILES) | IC50 [µM] |
| --- | --- |
| Cn1ncc2c(N3CCc4c(cnn4CC45CCC(N)(CC4)CC5)C3)nc(N)nc21 [compound 11, 4-(1-((4-aminobicyclo[2.2.2]octan-1-yl)methyl)-6,7-dihydro-1H-pyrazolo[4,3-c]pyridin-5(4H)-yl)-1-methyl-1H-pyrazolo[3,4-d]pyrimidin-6-amine] | > 6.58 |
| Cn1ncc2c(N3CCc4nn(CC56CCC(N)(CC5)CC6)cc4C3)nc(N)nc21 [compound 12, 4-(2-((4-aminobicyclo[2.2.2]octan-1-yl)methyl)-6,7-dihydro-2H-pyrazolo[4,3-c]pyridin-5(4H)-yl)-1-methyl-1H-pyrazolo[3,4-d]pyrimidin-6-amine] | > 4.96 |
| Cc1nn(CC23CCC(N)(CC2)CC3)c2c1CN(c1nc(N)nc3c1cnn3C)CC2 [compound 13, 4-(1-((4-aminobicyclo[2.2.2]octan-1-yl)methyl)-3-methyl-6,7-dihydro-1H-pyrazolo[4,3-c]pyridin-5(4H)-yl)-1-methyl-1H-pyrazolo[3,4-d]pyrimidin-6-amine] | 7.75 |
| Cc1c2c(nn1CC13CCC(N)(CC1)CC3)CCN(c1nc(N)nc3c1cnn3C)C2 [compound 14, 4-(2-((4-aminobicyclo[2.2.2]octan-1-yl)methyl)-3-methyl-6,7-dihydro-2H-pyrazolo[4,3-c]pyridin-5(4H)-yl)-1-methyl-1H-pyrazolo[3,4-d]pyrimidin-6-amine] | > 9.09 |
| Cc1nn(CC23CCC(N)(CC2)CC3)c2c1CN(c1nc(Cl)nc3cnn(C)c13)CC2 [compound 15, 4-((5-(5-chloro-1-methyl-1H-pyrazolo[4,3-d]pyrimidin-7-yl)-3-mehtyl-4,5,6,7-tetrahydro-1H-pyrazolo[4,3-c]pyridin-1-yl)methyl)bicyclo[2.2.2]octan-1-amine] | 1.27 |
| Cc1nc(N2CCc3c(c(C)nn3CC34CCC(N5CCCC5)(CC3)CC4)C2)c2cnn(C)c2n1 [compound 16, 1,6-dimethyl-4-(3-methyl-1-((4-(pyrrolidin-1-yl)bicyclo[2.2.2]octan-1-yl)methyl)-6,7-dihydro-1H-pyrazolo[4,3-c]pyridin-5(4H)-yl)-1H-pyrazolo[3,4-d]pyrimidine] | > 10 |
| Cc1nc(N2CCc3c(c(C)nn3CC34CCC(N5CCCC5)(CC3)CC4)C2)c2c(n1)c(C)nn2C [compound 17, 1,3,5-trimethyl-7-(3-methyl-1-((4-(pyrrolidin-1-yl)bicyclo[2.2.2]octan-1-yl)methyl)-6,7-dihydro-1H-pyrazolo[4,3-c]pyridin-5(4H)-yl)-1H-pyrazolo[4,3-d]pyrimidine] | > 10 |
| COCCNC12CCC(Cn3nc(C)c4c3CCN(c3nc(C)nc5c(C)nn(C)c35)C4)(CC1)CC2 [compound 18, N-(2-methoxyethyl)-4-((3-methyl-5-(1,3,5-trimethyl-1H-pyrazolo[4,3-d]pyrimidin-7-yl)-4,5,6,7-tetrahydro-1H-pyrazolo[4,3-c]pyridin-1-yl)methyl)bicyclo[2.2.2]octan-1-amine] | > 10 |
| Cc1nc(N2CCc3c(c(C)nn3CC34CCC(N5CCOCC5)(CC3)CC4)C2)c2cnn(C)c2n1 [compound 19, 4-(4-((5-(1,6-dimethyl-1H-pyrazolo[3,4-d]pyrimidin-4-yl)-3-methyl-4,5,6,7-tetrahydro-1H-pyrazolo[4,3-c]pyridin-1-yl)methyl)bicyclo[2.2.2]octan-1-yl)morpholine] | > 10 |
